Reference: patent US20090082203A1, “INSECTICIDAL BIS(SUBSTITUTED PHENYL)-1-{[4-(SATURATED HETEROCYCLYL-SUBSTITUTED)PHENYLMETHYL]- (4-PIPERIDYL)}METHANE DERIVATIVES” (priority 2004, published 2009)

Tested on: tobacco budworm (Heliothis virescens [Fabricius])
Assay: surface-treated diet test against tobacco budworm
Type: in vivo
Conditions: for Percent Growth Inhibition: inhibition of insect weight relative to untreated controls
Procedure: Candidate insecticides were evaluated for activity against the tobacco budworm (Heliothis virescens [Fabricius]) in a surface-treated diet test.
In this test one mL of molten (65-70° C.) wheat germ-based artificial diet was pipetted into each well of a four by six (24 well) multi-well plate (ID# 430345-15.5 mm dia.×17.6 mm deep; Corning Costar Corp., One Alewife Center, Cambridge, Mass. 02140). The diet was allowed to cool to ambient temperature before treatment with candidate insecticide.
For a determination of insecticidal activity, solutions of the candidate insecticides were prepared for testing using a Packard 204DT Multiprobe® Robotic System (Packard Instrument Company, 800 Research Parkway, Meriden, Conn. 06450), in which the robot first diluted a standard 50 millimolar DMSO solution of candidate insecticide with a 1:1 water/acetone solution (V/V) in a ratio of 1:7 stock solution to water/acetone. The robot subsequently pipetted 40 microliters of the so-prepared solution onto the surface of the diet in each of three wells in the 24 multi-well plate. The process was repeated with solutions of seven other candidate insecticides. Once treated, the contents of the multi-well plate were allowed to dry, leaving 0.25 millimoles of candidate insecticide on the surface of the diet, or a concentration of 0.25 millimolar. Appropriate untreated controls containing only DMSO on the diet surface were also included in this test.
For evaluations of the insecticidal activity of a candidate insecticide at varying rates of application, the test was established as described above using sub-multiples of the standard 50 millimolar DMSO solution of candidate insecticide. For example, the standard 50 millimolar solution was diluted by the robot with DMSO to give 5, 0.5, 0.05, 0.005, 0.0005 millimolar, or more dilute solutions of the candidate insecticide. In these evaluations there were six replicates of each rate of application placed on the surface of the diet in the 24 multi-well plate, for a total of four rates of application of candidate insecticide in each plate.
In each well of the test plate was placed one second instar tobacco budworm larvae, each weighing approximately five milligrams. After the larvae were placed in each well, the plate was sealed with clear polyfilm adhesive tape. The tape over each well was perforated to ensure an adequate air supply. The plates were then held in a growth chamber at 25° C. and 60% relative humidity for five days (light 14 hours/day).
After the five-day exposure period insecticidal activity for each rate of application of candidate insecticide was assessed as percent inhibition of insect weight relative to the weight of insects from untreated controls, and percent mortality when compared to the total number of insects infested.
The test compounds of formula I are identified by numbers that correspond to those in Table 1.

[1] = 0.25 millimolar on the surface of the diet, second instar larvae, five-day exposure, compared to the total number of insects infested
[2] = 0.25 millimolar on the surface of the diet, second instar larvae, five-day exposure

For `C[C@H]1OC(c2ccc(CN3CCC(C(O)(c4ccc(OC(F)(F)F)cc4)c4ccc(OC(F)(F)F)cc4)CC3)cc2)O[C@@H]1C` (relative stereo) [Compound 120], the “Percent Mortality” value [1] was 100% and the “Percent Growth Inhibition” value [2] was 100%.
With `C[C@H]1OC(c2ccc(C[N+]3([O-])CCC(C(O)(c4ccc(OC(F)(F)F)cc4)c4ccc(OC(F)(F)F)cc4)CC3)cc2)O[C@@H]1C` (relative stereo) [Compound 124] the “Percent Mortality” value [1] was 100% and the “Percent Growth Inhibition” value [2] was 100%.
For `[O-][N+]1(Cc2ccc(C3O[C@@H]4CCCC[C@H]4O3)cc2)CCC(C(O)(c2ccc(OC(F)(F)F)cc2)c2ccc(OC(F)(F)F)cc2)CC1` (relative stereo) [Compound 128], the “Percent Mortality” value [1] was 100% and the “Percent Growth Inhibition” value [2] was 100%.
`OC(c1ccc(OC(F)(F)F)cc1)(c1ccc(OC(F)(F)F)cc1)C1CCN(Cc2ccc(C3OCCO3)cc2)CC1` [Compound 1] was tested, and the “Percent Growth Inhibition” value [2] was 100% and the “Percent Mortality” value (in vivo) was 100%.
`[O-][N+]1(Cc2ccc(C3OCCO3)cc2)CCC(C(O)(c2ccc(OC(F)(F)F)cc2)c2ccc(OC(F)(F)F)cc2)CC1` (stereo not drawn) [Compound 2] was tested, and the “Percent Growth Inhibition” value [2] was 100% and the “Percent Mortality” value (in vivo) was 100%.
`CC1COC(c2ccc(CN3CCC(C(O)(c4ccc(OC(F)(F)F)cc4)c4ccc(OC(F)(F)F)cc4)CC3)cc2)O1` (stereo not drawn) [Compound 3] was tested, and the “Percent Mortality” value [1] was 100% and the “Percent Growth Inhibition” value [2] was 100%.
For `OC(c1ccc(OC(F)(F)F)cc1)(c1ccc(OC(F)(F)F)cc1)C1CCN(Cc2ccc(C3OCCCO3)cc2)CC1` [Compound 4], the “Percent Mortality” value [1] was 100% and the “Percent Growth Inhibition” value [2] was 100%.
In the case of `[O-][N+]1(Cc2ccc(C3OCCCO3)cc2)CCC(C(O)(c2ccc(OC(F)(F)F)cc2)c2ccc(OC(F)(F)F)cc2)CC1` (stereo not drawn) [Compound 5], the “Percent Mortality” value [1] is reported as 100% and the “Percent Growth Inhibition” value [2] is reported as 100%.
`[O-][N+]1(Cc2ccc(C3OCCCCO3)cc2)CCC(C(O)(c2ccc(OC(F)(F)F)cc2)c2ccc(OC(F)(F)F)cc2)CC1` (stereo not drawn) [Compound 7] was tested, and the “Percent Mortality” value [1] was 100% and the “Percent Growth Inhibition” value [2] was 100%.
For `CC1(c2ccc(CN3CCC(C(O)(c4ccc(OC(F)(F)F)cc4)c4ccc(OC(F)(F)F)cc4)CC3)cc2)OCCO1` [Compound 8], the “Percent Mortality” value [1] was 100% and the “Percent Growth Inhibition” value [2] was 100%.
With `CC1COC(c2ccc(C[N+]3([O-])CCC(C(O)(c4ccc(OC(F)(F)F)cc4)c4ccc(OC(F)(F)F)cc4)CC3)cc2)O1` (stereo not drawn) [Compound 9] the “Percent Mortality” value [1] was 100% and the “Percent Growth Inhibition” value [2] was 100%.
For `CC1(c2ccc(CN3CCC(C(O)(c4ccc(OC(F)(F)F)cc4)c4ccc(OC(F)(F)F)cc4)CC3)cc2)OCCCO1` [Compound 11], the “Percent Mortality” value [1] was 100% and the “Percent Growth Inhibition” value [2] was 100%.
With `OC(c1ccc(OC(F)(F)F)cc1)(c1ccc(OC(F)(F)F)cc1)C1CCN(Cc2ccc(C3SCCS3)cc2)CC1` [Compound 15] the “Percent Mortality” value [1] was 100% and the “Percent Growth Inhibition” value [2] was 100%.
In the case of `OC(c1ccc(OC(F)(F)F)cc1)(c1ccc(OC(F)(F)F)cc1)C1CCN(Cc2ccc(C3OCCS3)cc2)CC1` (stereo not drawn) [Compound 17], the “Percent Mortality” value [1] is reported as 100% and the “Percent Growth Inhibition” value [2] is reported as 100%.
In the case of `CN1CCN(C)C1c1ccc(CN2CCC(C(O)(c3ccc(OC(F)(F)F)cc3)c3ccc(OC(F)(F)F)cc3)CC2)cc1` [Compound 25], the “Percent Mortality” value [1] is reported as 100% and the “Percent Growth Inhibition” value [2] is reported as 100%.
`CC1(C)COC(c2ccc(CN3CCC(C(O)(c4ccc(OC(F)(F)F)cc4)c4ccc(OC(F)(F)F)cc4)CC3)cc2)OC1` [Compound 39] was tested, and the “Percent Mortality” value [1] was 100% and the “Percent Growth Inhibition” value [2] was 100%.
In the case of `OC(c1ccc(OC(F)(F)F)cc1)(c1ccc(OC(F)(F)F)cc1)C1CCN(Cc2ccc(C3OCC4(CC4)CO3)cc2)CC1` [Compound 45], the “Percent Mortality” value [1] is reported as 100% and the “Percent Growth Inhibition” value [2] is reported as 100%.
For `CC1CCOC(c2ccc(CN3CCC(C(O)(c4ccc(OC(F)(F)F)cc4)c4ccc(OC(F)(F)F)cc4)CC3)cc2)O1` (stereo not drawn) [Compound 47], the “Percent Mortality” value [1] was 67% and the “Percent Growth Inhibition” value [2] was 100%.
In the case of `CCC1COC(c2ccc(CN3CCC(C(O)(c4ccc(OC(F)(F)F)cc4)c4ccc(OC(F)(F)F)cc4)CC3)cc2)O1` (stereo not drawn) [Compound 48], the “Percent Mortality” value [1] is reported as 100% and the “Percent Growth Inhibition” value [2] is reported as 100%.
With `CC(C)(C)C1COC(c2ccc(CN3CCC(C(O)(c4ccc(OC(F)(F)F)cc4)c4ccc(OC(F)(F)F)cc4)CC3)cc2)O1` (stereo not drawn) [Compound 50] the “Percent Mortality” value [1] was 100% and the “Percent Growth Inhibition” value [2] was 100%.
With `COCC1COC(c2ccc(CN3CCC(C(O)(c4ccc(OC(F)(F)F)cc4)c4ccc(OC(F)(F)F)cc4)CC3)cc2)O1` (stereo not drawn) [Compound 51] the “Percent Mortality” value [1] was 100% and the “Percent Growth Inhibition” value [2] was 100%.
For `C=CC1COC(c2ccc(CN3CCC(C(O)(c4ccc(OC(F)(F)F)cc4)c4ccc(OC(F)(F)F)cc4)CC3)cc2)O1` (stereo not drawn) [Compound 52], the “Percent Mortality” value [1] was 100% and the “Percent Growth Inhibition” value [2] was 100%.
For `OC(c1ccc(OC(F)(F)F)cc1)(c1ccc(OC(F)(F)F)cc1)C1CCN(Cc2ccc(C3OCC(c4ccccc4)O3)cc2)CC1` (stereo not drawn) [Compound 53], the “Percent Mortality” value [1] was 100% and the “Percent Growth Inhibition” value [2] was 100%.
With `OC(c1ccc(OC(F)(F)F)cc1)(c1ccc(OC(F)(F)F)cc1)C1CCN(Cc2ccc(C3OCCC(c4ccccc4)O3)cc2)CC1` (stereo not drawn) [Compound 55] the “Percent Mortality” value [1] was 100% and the “Percent Growth Inhibition” value [2] was 100%.
For `OC(c1ccc(OC(F)(F)F)cc1)(c1ccc(OC(F)(F)F)cc1)C1CCN(Cc2ccc(C3(c4ccccc4)OCCO3)cc2)CC1` [Compound 57], the “Percent Mortality” value [1] was 100% and the “Percent Growth Inhibition” value [2] was 100%.
In the case of `OC(c1ccc(OC(F)(F)F)cc1)(c1ccc(OC(F)(F)F)cc1)C1CCN(Cc2ccc(C3OCC=CCO3)cc2)CC1` [Compound 58], the “Percent Mortality” value [1] is reported as 100% and the “Percent Growth Inhibition” value [2] is reported as 100%.
`CCCCN1CCSC1c1ccc(CN2CCC(C(O)(c3ccc(OC(F)(F)F)cc3)c3ccc(OC(F)(F)F)cc3)CC2)cc1` (stereo not drawn) [Compound 59] was tested, and the “Percent Mortality” value [1] was 100% and the “Percent Growth Inhibition” value [2] was 100%.
With `[O-][N+]1(Cc2ccc(C3OCC(c4ccccc4)O3)cc2)CCC(C(O)(c2ccc(OC(F)(F)F)cc2)c2ccc(OC(F)(F)F)cc2)CC1` (stereo not drawn) [Compound 60] the “Percent Mortality” value [1] was 100% and the “Percent Growth Inhibition” value [2] was 100%.
For `COCC1COC(c2ccc(C[N+]3([O-])CCC(C(O)(c4ccc(OC(F)(F)F)cc4)c4ccc(OC(F)(F)F)cc4)CC3)cc2)O1` (stereo not drawn) [Compound 61], the “Percent Mortality” value [1] was 100% and the “Percent Growth Inhibition” value [2] was 100%.
In the case of `CCC1COC(c2ccc(C[N+]3([O-])CCC(C(O)(c4ccc(OC(F)(F)F)cc4)c4ccc(OC(F)(F)F)cc4)CC3)cc2)O1` (stereo not drawn) [Compound 62], the “Percent Mortality” value [1] is reported as 100% and the “Percent Growth Inhibition” value [2] is reported as 100%.
For `[O-][N+]1(Cc2ccc(C3OCC=CCO3)cc2)CCC(C(O)(c2ccc(OC(F)(F)F)cc2)c2ccc(OC(F)(F)F)cc2)CC1` (stereo not drawn) [Compound 63], the “Percent Mortality” value [1] was 100% and the “Percent Growth Inhibition” value [2] was 100%.
In the case of `[O-][N+]1(Cc2ccc(C3(Cc4ccccc4)OCCO3)cc2)CCC(C(O)(c2ccc(OC(F)(F)F)cc2)c2ccc(OC(F)(F)F)cc2)CC1` (stereo not drawn) [Compound 65], the “Percent Mortality” value [1] is reported as 67% and the “Percent Growth Inhibition” value [2] is reported as 100%.
In the case of `OC(c1ccc(OC(F)(F)F)cc1)(c1ccc(OC(F)(F)F)cc1)C1CCN(Cc2ccc(C3(Cc4ccccc4)OCCO3)cc2)CC1` [Compound 66], the “Percent Mortality” value [1] is reported as 67% and the “Percent Growth Inhibition” value [2] is reported as 100%.
In the case of `[O-][N+]1(Cc2ccc(C3(COc4ccccc4)OCCO3)cc2)CCC(C(O)(c2ccc(OC(F)(F)F)cc2)c2ccc(OC(F)(F)F)cc2)CC1` (stereo not drawn) [Compound 67], the “Percent Mortality” value [1] is reported as 100% and the “Percent Growth Inhibition” value [2] is reported as 100%.
In the case of `CC1CCOC(c2ccc(C[N+]3([O-])CCC(C(O)(c4ccc(OC(F)(F)F)cc4)c4ccc(OC(F)(F)F)cc4)CC3)cc2)O1` (stereo not drawn) [Compound 68], the “Percent Mortality” value [1] is reported as 100% and the “Percent Growth Inhibition” value [2] is reported as 100%.
`CC1(C)CCOC(c2ccc(CN3CCC(C(O)(c4ccc(OC(F)(F)F)cc4)c4ccc(OC(F)(F)F)cc4)CC3)cc2)O1` (stereo not drawn) [Compound 69] was tested, and the “Percent Mortality” value [1] was 100% and the “Percent Growth Inhibition” value [2] was 100%.
In the case of `CC1(C)CCOC(c2ccc(C[N+]3([O-])CCC(C(O)(c4ccc(OC(F)(F)F)cc4)c4ccc(OC(F)(F)F)cc4)CC3)cc2)O1` (stereo not drawn) [Compound 70], the “Percent Mortality” value [1] is reported as 100% and the “Percent Growth Inhibition” value [2] is reported as 100%.
With `CC(=O)N1CCSC1c1ccc(CN2CCC(C(O)(c3ccc(OC(F)(F)F)cc3)c3ccc(OC(F)(F)F)cc3)CC2)cc1` (stereo not drawn) [Compound 71] the “Percent Mortality” value [1] was 33% and the “Percent Growth Inhibition” value [2] was 100%.
In the case of `CCCC1COC(c2ccc(CN3CCC(C(O)(c4ccc(OC(F)(F)F)cc4)c4ccc(OC(F)(F)F)cc4)CC3)cc2)O1` (stereo not drawn) [Compound 72], the “Percent Mortality” value [1] is reported as 100% and the “Percent Growth Inhibition” value [2] is reported as 100%.
